For 31 molecules, IC50 results are on record in US20260226068A1, “IMIDAZOTRIAZINE IL-17A MODULATORS AND USES THEREOF” (DICE ALPHA, INC., priority 2023, published 2026).

Assay [1] has as its target T1, IL-17A/F (Homo sapiens, UniProt Q16552+Q96PD4).
T1 construct: purchased R&D Systems
T1 sequence (Q16552 24-155): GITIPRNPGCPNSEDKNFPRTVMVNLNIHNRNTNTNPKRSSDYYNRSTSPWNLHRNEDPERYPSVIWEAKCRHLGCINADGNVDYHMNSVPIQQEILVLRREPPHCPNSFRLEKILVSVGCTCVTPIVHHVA
T1 sequence (Q96PD4 31-163): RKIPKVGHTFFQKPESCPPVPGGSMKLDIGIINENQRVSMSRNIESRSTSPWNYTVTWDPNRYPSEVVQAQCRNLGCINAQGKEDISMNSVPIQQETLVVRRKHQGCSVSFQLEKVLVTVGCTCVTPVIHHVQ
Put plainly: IL-17A/F HEK-Blue cell assay (SEAP reporter). The format is cell-based. The note with it: HEK-Blue IL-17A reporter cells, IL17A/F 5 ng/mL, 20 hours, SEAP read at A630; read-out: HEK-Blue IL17AF (IC50 for IL-17A/F inhibition).

Assay [2] concerns the target T2, IL-17A/A (Homo sapiens, UniProt Q16552).
T2 construct: purchased Genscript Z03228
T2 sequence (Q16552 24-155): T1 sequence (Q16552 24-155)
Put plainly: IL-17A/A HEK-Blue cell assay (SEAP reporter). The format is cell-based. The note with it: HEK-Blue IL-17A reporter cells, IL17A/A 5 ng/mL, 20 hours, SEAP read at A630; read-out: HEK-Blue IL17AA (IC50 for IL-17A/A inhibition).

With `CC(C)c1nonc1C(=O)N[C@H](c1cn2nc(CC3C[C@@H](C(F)(F)F)CNC3=O)cnc2n1)C1CCC(F)(F)CC1` (some centres unmarked) [Compound 12], the figures for the IC50 in assay [1] and in assay [2] were over 1000 nM and under 100 nM, respectively.
With `O=C(N[C@H](c1cn2nc(CC3C[C@@H](C(F)(F)F)CNC3=O)cnc2n1)C1CCC(F)(F)CC1)c1nonc1C1CC1` (stereo partly drawn) [Compound 13, 4-cyclopropyl-N—((S)-(4,4-difluorocyclohexyl)(2-(((5R)-2-oxo-5-(trifluoromethyl)piperidin-3-yl)methyl)imidazo[1,2-b][1,2,4]triazin-6-yl)methyl)-1,2,5-oxadiazole-3-carboxamide], the results for the IC50 in assay [1] and in assay [2] were over 1000 nM and under 100 nM, respectively.
Regarding `CC(C)n1nccc1C(=O)N[C@H](c1cn2nc(CC3C[C@H](C(F)(F)F)CNC3=O)cnc2n1)C1CCC(F)(F)CC1` (stereo partly drawn) [Compound 15, N—((S)-(4,4-difluorocyclohexyl)(2-(((5S)-2-oxo-5-(trifluoromethyl)piperidin-3-yl)methyl)imidazo[1,2-b][1,2,4]triazin-6-yl)methyl)-1-isopropyl-1H-pyrazole-5-carboxamide], the IC50 is over 1000 nM in assay [1] and 100 to 1000 nM in assay [2].
The like results for `O=C(N[C@H](c1cn2nc(CC3C[C@H](C(F)(F)F)CNC3=O)cnc2n1)C1CCC(F)(F)CC1)c1nonc1C1CC1` (stereo partly drawn) [Compound 16, 4-cyclopropyl-N—((S)-(4,4-difluorocyclohexyl)(2-(((5S)-2-oxo-5-(trifluoromethyl)piperidin-3-yl)methyl)imidazo[1,2-b][1,2,4]triazin-6-yl)methyl)-1,2,5-oxadiazole-3-carboxamide] were, in that order, over 1000 nM and 100 to 1000 nM.
The like results for `CCn1nccc1C(=O)N[C@H](c1cn2nc(CC3C[C@@H](C(F)(F)F)CNC3=O)cnc2n1)C1CCC(F)(F)CC1` (some centres unmarked) [Compound 24] were, in that order, over 1000 nM and 100 to 1000 nM.
The like results for `CCn1nccc1C(=O)N[C@H](c1cn2nc(C[C@@H]3C[C@@H](C(F)(F)F)CNC3=O)cnc2n1)[C@H]1CC[C@H](C)CC1` [Compound 25] were, in that order, over 1000 nM and 100 to 1000 nM.
In the case of `CCn1nccc1C(=O)N[C@H](c1cn2nc(C[C@H]3C[C@@H](C(F)(F)F)CNC3=O)cnc2n1)[C@H]1CC[C@H](C)CC1` [Compound 26], the results for the IC50 in assay [1] and in assay [2] were over 1000 nM and under 100 nM, respectively.
Take `CCn1nccc1C(=O)N[C@H](c1cn2nc(C[C@H]3C[C@@H](C(F)(F)F)CNC3=O)cnc2n1)C1CCC(F)(F)CC1` [Compound 27]: the IC50 in assay [1] was over 1000 nM; in assay [2] it was under 100 nM.
With `CCn1nccc1C(=O)N[C@H](c1cn2nc(C[C@@H]3C[C@@H](C(F)(F)F)CNC3=O)cnc2n1)C1CCC(F)(F)CC1` [Compound 28], the IC50 in assay [1] is over 1000 nM; in assay [2], 100 to 1000 nM.
For `CCn1nccc1C(=O)N[C@H](c1cn2nc(C[C@H]3C[C@@H](C(F)(F)F)CNC3=O)cnc2n1)C(C1CC1)C1CC1` [Compound 29, N—((S)-2,2-dicyclopropyl-1-(2-(((3R,5R)-2-oxo-5-(trifluoromethyl)piperidin-3-yl)methyl)imidazo[1,2-b][1,2,4]triazin-6-yl)ethyl)-1-ethyl-1H-pyrazole-5-carboxamide], in that order: over 1000 nM and under 100 nM.
Turning to `CCn1nccc1C(=O)N[C@H](c1cn2nc(C[C@H]3C[C@@H](C(F)(F)F)CNC3=O)cnc2n1)[C@H]1CCCC(F)(F)C1` [Compound 30, N—((S)—((S)-3,3-difluorocyclohexyl)(2-(((3R,5R)-2-oxo-5-(trifluoromethyl)piperidin-3-yl)methyl)imidazo[1,2-b][1,2,4]triazin-6-yl)methyl)-1-ethyl-1H-pyrazole-5-carboxamide], the values for the IC50 in assay [1] and in assay [2] were over 1000 nM and under 100 nM, respectively.
For `CC(C)c1nocc1C(=O)N[C@H](c1cn2nc(C[C@H]3C[C@@H](C(F)(F)F)CNC3=O)cnc2n1)C1CCC(F)(F)CC1` [Compound 32], in that order: over 1000 nM and 100 to 1000 nM.
Consider `CC(C)n1nccc1C(=O)N[C@H](c1cn2nc(C[C@H]3C[C@@H](C(F)(F)F)CNC3=O)cnc2n1)C1CCC(F)(F)CC1` [Compound 34], for which the IC50 is over 1000 nM in assay [1] and under 100 nM in assay [2].
As to `CCc1nonc1C(=O)N[C@H](c1cn2nc(C[C@H]3C[C@@H](C(F)(F)F)CNC3=O)cnc2n1)C1CCC(F)(F)CC1` [Compound 35], the values for the IC50 in assay [1] and in assay [2] were over 1000 nM and 100 to 1000 nM, respectively.
On to `Cn1nccc1C(=O)N[C@H](c1cn2nc(C[C@H]3C[C@@H](C(F)(F)F)CNC3=O)cnc2n1)C1CCC(F)(F)CC1` [Compound 36], for which the IC50 in assay [1] was over 1000 nM; in assay [2], 100 to 1000 nM.
Consider `CC(C)c1nonc1C(=O)N[C@H](c1cn2nc(C[C@H]3C[C@@H](C(F)(F)F)CNC3=O)cnc2n1)C1CCC(F)(F)CC1` [Compound 37], for which the figures for the IC50 in assay [1] and in assay [2] were over 1000 nM and under 100 nM, respectively.
In the case of `O=C(N[C@H](c1cn2nc(C[C@H]3C[C@@H](C(F)(F)F)CNC3=O)cnc2n1)C1CCC(F)(F)CC1)c1conc1C1CC1` [Compound 38], the IC50 in assay [1] was over 1000 nM; in assay [2], 100 to 1000 nM.
For `O=C(N[C@H](c1cn2nc(C[C@H]3C[C@@H](C(F)(F)F)CNC3=O)cnc2n1)C(C1CC1)C1CC1)c1nonc1C1CC1` [Compound 39, 4-cyclopropyl-N—((S)-2,2-dicyclopropyl-1-(2-(((3R,5R)-2-oxo-5-(trifluoromethyl)piperidin-3-yl)methyl)imidazo[1,2-b][1,2,4]triazin-6-yl)ethyl)-1,2,5-oxadiazole-3-carboxamide], in that order: over 1000 nM and under 100 nM.
In the case of `O=C(N[C@H](c1cn2nc(C[C@H]3C[C@@H](C(F)(F)F)CNC3=O)cnc2n1)C1CCC(F)(F)CC1)c1conc1CCF` [Compound 40], the results for the IC50 in assay [1] and in assay [2] were over 1000 nM and 100 to 1000 nM, respectively.
In the case of `CC(C)n1nccc1C(=O)N[C@H](c1cn2nc(C[C@H]3C[C@H](C(F)(F)F)CNC3=O)cnc2n1)C1CCC(F)(F)CC1` [Compound 41], the IC50 is over 1000 nM in assay [1] and 100 to 1000 nM in assay [2].
Consider `O=C(N[C@H](c1cn2nc(C[C@H]3C[C@@H](C(F)(F)F)CNC3=O)cnc2n1)C1CCC(F)(F)CC1)c1conc1C(F)(F)F` [Compound 42], for which the IC50 was over 1000 nM in assay [1] and 100 to 1000 nM in assay [2].
As for `O=C(N[C@H](c1cn2nc(C[C@H]3C[C@@H](C(F)(F)F)CNC3=O)cnc2n1)C1CCC(F)(F)CC1)c1nonc1C1CC1` [Compound 43], the IC50 in assay [1] is over 1000 nM; in assay [2] it was under 100 nM.
`CCn1nccc1C(=O)N[C@H](c1cn2nc(C[C@H]3C[C@@H](C(F)(F)F)CNC3=O)c(N3CCOCC3)nc2n1)C1CCC(F)(F)CC1` [Compound 46]: the values for the IC50 in assay [1] and in assay [2] were 100 to 1000 nM and under 100 nM, respectively.
For `CCn1nccc1C(=O)N[C@H](c1cn2nc(CC3C[C@@H](C(F)(F)F)CNC3=O)c(N3CCOCC3)nc2n1)C1CCC(F)(F)CC1` (some centres unmarked) [Compound 47], in that order: over 1000 nM and under 100 nM.
For `O=C(N[C@H](c1cn2nc(C[C@H]3C[C@H](C(F)(F)F)CNC3=O)cnc2n1)C1CCC(F)(F)CC1)c1nonc1C1CC1` [Compound 53], in that order: over 1000 nM and 100 to 1000 nM.
The like results for `O=C(N[C@H](c1cn2nc(CC3C[C@@H](C(F)(F)F)CNC3=O)c(N3CCOCC3)nc2n1)C1CCC(F)(F)CC1)c1nonc1C1CC1` (some centres unmarked) [Compound 57] were, in that order, over 1000 nM and under 100 nM.
For `CCn1nccc1C(=O)N[C@H](c1cn2nc(CC3C[C@@H](C(F)(F)F)CNC3=O)c(N3CCOCC3)nc2n1)[C@H]1CC[C@H](C)CC1` (some centres unmarked) [Compound 58], the IC50 in assay [1] was 100 to 1000 nM; in assay [2] it was under 100 nM.
`CCn1nccc1C(=O)N[C@H](c1cn2nc(CC3C[C@@H](C(F)(F)F)CNC3=O)c(N3CCOCC3)nc2n1)[C@H]1CC[C@H](C)CC1` (some centres unmarked) [Compound 59]: the IC50 in assay [1] is over 1000 nM; in assay [2], under 100 nM.
Regarding `CC[C@@H](c1ccc(F)cc1)[C@H](NC(=O)c1ccnn1CC)c1cn2nc(C[C@H]3C[C@@H](C(F)(F)F)CNC3=O)cnc2n1` [Compound 60, 1-ethyl-N-((1S,2S)-2-(4-fluorophenyl)-1-(2-(((3R,5R)-2-oxo-5-(trifluoromethyl)piperidin-3-yl)methyl)imidazo[1,2-b][1,2,4]triazin-6-yl)butyl)-1H-pyrazole-5-carboxamide], the results for the IC50 in assay [1] and in assay [2] were over 1000 nM and under 100 nM, respectively.
As to `CCn1nccc1C(=O)N[C@H](c1cn2nc(C[C@H]3C[C@@H](C(F)(F)F)CNC3=O)c(C3CCOCC3)nc2n1)[C@H]1CCCC(F)(F)C1` [Compound 66, N—((S)—((S)-3,3-difluorocyclohexyl)(2-(((3R,5R)-2-oxo-5-(trifluoromethyl)piperidin-3-yl)methyl)-3-(tetrahydro-2H-pyran-4-yl)imidazo[1,2-b][1,2,4]triazin-6-yl)methyl)-1-ethyl-11H-pyrazole-5-carboxamide], the IC50 in assay [1] and in assay [2] was under 100 nM throughout.
On to `CCn1nccc1C(=O)N[C@H](c1cn2nc(C[C@H]3C[C@@H](C(F)(F)F)CNC3=O)c(C3CCOCC3)nc2n1)[C@@H]1CCCC(F)(F)C1` [Compound 67, N—((S)—((R)-3,3-difluorocyclohexyl)(2-(((3R,5R)-2-oxo-5-(trifluoromethyl)piperidin-3-yl)methyl)-3-(tetrahydro-2H-pyran-4-yl)imidazo[1,2-b][1,2,4]triazin-6-yl)methyl)-1-ethyl-1H-pyrazole-5-carboxamide], for which the IC50 in assay [1] and in assay [2] was under 100 nM in each case.
